Source: patent US11518758B2, “Heteroarylaminopyrimidine amide autophagy inhibitors and methods of use thereof” (Deciphera Pharmaceuticals, LLC, priority 2019, dated 2022)

Target: T1, ULK1 kinase (Homo sapiens, UniProt O75385, E37A/K38A)
T1 construct: (residues 1-283; ID NO: 2); purchased Beryllium
T1 sequence (O75385 1-283 E37A/K38A): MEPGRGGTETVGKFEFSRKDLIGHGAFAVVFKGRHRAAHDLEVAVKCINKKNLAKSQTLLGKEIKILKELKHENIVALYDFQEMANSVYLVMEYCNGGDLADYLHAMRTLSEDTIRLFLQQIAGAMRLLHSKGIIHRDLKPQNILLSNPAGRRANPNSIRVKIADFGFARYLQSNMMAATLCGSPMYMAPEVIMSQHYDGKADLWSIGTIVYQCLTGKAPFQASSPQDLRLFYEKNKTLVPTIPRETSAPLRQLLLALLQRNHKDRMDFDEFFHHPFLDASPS
Assay: Biochemical assay for ULK1.3 (coupled pyruvate kinase/lactate dehydrogenase assay)
Conditions: 0.1 nM ULK1 (from Beryllium), peptide substrate, 1 mM ATP
Method: Example 175. Biochemical Assay for ULK1.3
Activity of ULK1 kinase was determined spectroscopically using a coupled pyruvate kinase/lactate dehydrogenase assay that continuously monitors the ATP hydrolysis-dependent oxidation of NADH (e.g., Schindler et al. Science (2000) 289: 1938-1942). Assays were conducted in 384-well plates (100 uL final volume) using 0.1 nM ULK1 (from Beryllium), 0.075 mM peptide substrate (YANWLAASIYLDGKKK (SEQ ID NO: 5)), 1.5 units pyruvate kinase, 2.1 units lactate dehydrogenase, 1 mM phosphoenol pyruvate, 0.28 mM NADH and 1 mM ATP in assay buffer (100 mM Tris, pH 7.5, 15 mM MgCl2, 0.5 mM DTT, 0.004% (w/v) BSA, and 0.004% Triton X-100). Inhibition of ULK1 was measured by adding serial diluted test compound (final assay concentration of 1% DMSO). A decrease in absorption at 340 nm was monitored continuously for 6 hours at 30° C. on a multi-mode microplate reader (BioTek). The reaction rate was calculated using the 2-3 h time frame. The reaction rate at each concentration of compound was converted to percent inhibition using controls (i.e. reaction with no test compound and reaction with a known inhibitor) and IC50 values were calculated using software routines in Prism (GraphPad software).

SMILES | IC50 [nM]
Cc1nn(C2CCN(C(C)C)CC2)cc1Nc1ncc(C(F)(F)F)c(NCCCN2CCCOC2=O)n1 [Example 68] | 25 to 100
Cc1nn([C@H]2CCN(C)C2)cc1Nc1ncc(Br)c(NCCCN2CCCCC2=O)n1 [Example 61] | 25 to 100

Second part, the compound after the results:

IC50 [nM] | SMILES
1 to 25 | Cc1nn(C2CCN(C)CC2)cc1Nc1ncc(C(F)(F)F)c(NCCCN2CCOCCC2=O)n1 [Example 127]
1 to 25 | Cc1nn(C2CCN(C)CC2)cc1Nc1ncc(C(F)(F)F)c(NCCCN2CCCOCC2=O)n1 [Example 102]

Target: T2, LRRK2 kinase (Homo sapiens, UniProt Q5S007)
T2 construct: purchased Thermo Fisher
T2 sequence (Q5S007 with tags, fused parts or gaps): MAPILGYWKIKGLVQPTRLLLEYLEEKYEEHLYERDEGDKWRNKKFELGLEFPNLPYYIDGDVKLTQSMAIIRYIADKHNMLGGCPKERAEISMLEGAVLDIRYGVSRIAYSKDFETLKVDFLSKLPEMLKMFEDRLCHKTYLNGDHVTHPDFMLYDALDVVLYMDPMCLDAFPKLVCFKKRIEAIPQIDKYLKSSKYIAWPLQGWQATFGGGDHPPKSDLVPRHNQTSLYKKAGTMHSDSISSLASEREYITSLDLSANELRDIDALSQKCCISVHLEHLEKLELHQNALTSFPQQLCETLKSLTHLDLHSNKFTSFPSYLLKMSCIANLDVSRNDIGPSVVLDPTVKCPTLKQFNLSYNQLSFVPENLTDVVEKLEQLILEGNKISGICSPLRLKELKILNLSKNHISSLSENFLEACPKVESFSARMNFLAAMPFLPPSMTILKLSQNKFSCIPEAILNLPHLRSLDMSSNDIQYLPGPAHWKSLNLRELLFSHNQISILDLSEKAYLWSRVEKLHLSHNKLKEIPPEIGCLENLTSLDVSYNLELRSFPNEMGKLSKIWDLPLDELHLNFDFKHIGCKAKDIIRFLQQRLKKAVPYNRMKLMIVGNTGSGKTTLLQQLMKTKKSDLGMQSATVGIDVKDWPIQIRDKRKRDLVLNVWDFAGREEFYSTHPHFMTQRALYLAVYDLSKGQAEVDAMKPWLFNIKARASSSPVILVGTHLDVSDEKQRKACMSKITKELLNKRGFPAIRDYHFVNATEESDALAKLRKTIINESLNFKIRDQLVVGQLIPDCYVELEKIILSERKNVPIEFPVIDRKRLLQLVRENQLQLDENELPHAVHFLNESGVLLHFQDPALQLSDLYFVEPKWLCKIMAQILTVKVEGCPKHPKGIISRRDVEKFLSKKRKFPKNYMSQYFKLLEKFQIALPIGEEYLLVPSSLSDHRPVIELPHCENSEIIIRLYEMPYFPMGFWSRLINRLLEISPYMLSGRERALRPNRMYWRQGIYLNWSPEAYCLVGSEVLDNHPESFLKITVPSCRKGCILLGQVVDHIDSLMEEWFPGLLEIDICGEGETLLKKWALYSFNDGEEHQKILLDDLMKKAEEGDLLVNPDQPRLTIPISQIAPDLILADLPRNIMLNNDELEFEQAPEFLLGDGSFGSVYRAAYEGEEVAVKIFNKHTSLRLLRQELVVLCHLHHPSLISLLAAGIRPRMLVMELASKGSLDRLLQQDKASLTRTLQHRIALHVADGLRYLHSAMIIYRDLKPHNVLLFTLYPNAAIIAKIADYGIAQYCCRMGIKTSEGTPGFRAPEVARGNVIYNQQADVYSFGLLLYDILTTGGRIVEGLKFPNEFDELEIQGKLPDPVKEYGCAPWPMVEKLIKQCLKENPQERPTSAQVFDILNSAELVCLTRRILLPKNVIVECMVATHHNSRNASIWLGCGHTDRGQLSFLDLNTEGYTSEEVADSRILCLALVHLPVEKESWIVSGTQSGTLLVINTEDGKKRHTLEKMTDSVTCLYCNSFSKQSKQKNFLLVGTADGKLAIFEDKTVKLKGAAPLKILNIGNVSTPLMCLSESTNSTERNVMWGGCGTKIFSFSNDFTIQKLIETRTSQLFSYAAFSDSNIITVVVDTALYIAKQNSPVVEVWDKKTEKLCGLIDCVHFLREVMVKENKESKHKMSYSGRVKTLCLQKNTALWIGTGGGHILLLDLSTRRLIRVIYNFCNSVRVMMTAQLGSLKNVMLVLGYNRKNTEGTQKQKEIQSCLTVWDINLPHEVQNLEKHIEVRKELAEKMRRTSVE
Assay: Biochemical assay for LRRK2 (coupled pyruvate kinase/lactate dehydrogenase assay)
Conditions: 26.4 nM LRRK2 (residues 970-2528), 0.1 mM peptide substrate, 1 mM ATP

IC50 [nM] | SMILES
100 to 300 | Cc1nn(C2CCN(C)CC2)cc1Nc1ncc(C(F)(F)F)c(NCCCN2CCCCC2=O)n1 [Example 8]
300 to 600 | CCN1CC[C@H](n2cc(Nc3ncc(Br)c(NCCCN4CCCCC4=O)n3)c(C)n2)C1 [Example 64]
